Measurements as given in patent publication US20120076757A1, “COMPOSITION FOR TRANSMUCOSAL DELIVERY OF POLYPEPTIDES” (Cephalon, Inc., priority 2007, published 2012).

What was measured:
[1] = Anaesthetized dog model, desmopressin oral transmucosal (buccal) permeation, serum by LC/MS/MS; format: in vivo
Text: Anesthetized dog models were used to evaluate transmucosal permeation of polypeptide compositions prepared in accordance with the invention. Mature mongrel large-breed (15-35 kg) dogs were screened for medical conditions to qualify. For testing, the dogs were anaesthetized, placed on their right or left side, and cannulated via the cephalic vein. A Teflon ring was attached to the buccal mucosa in a horizontal position to form a reservoir. Biologically active polypeptides to be evaluated were deposited, with or without enhancer components, onto the buccal mucosa surrounded by the ring. Depending upon the experiment, active polypeptides were deposited in the form of solution, dry powder or solid dosage form (tablet). Blood samples were taken every 10 minutes for a period of 2 hours, with additional samples taken up to 4 hours depending upon the protocol. The active-containing compositions were removed from the reservoir at 60 minutes and the reservoir rinsed twice.
At 2 hours, the dog is removed from anesthesia and the ring is removed from its buccal mucosa. Following recovery from anesthesia, subsequent blood samples are taken from the awake dogs. Blood samples are allowed to clot, the serum is separated by centrifugation, and the serum is frozen at −20° or −80° C., depending upon the protocol until analyzed for the active polypeptide content.
Desmopressin (deamino-Cysl-D-Arg Vasopressin, or D-Arg Vasopresin) was tested for buccal permeation into the blood stream by various administration forms: solution, powder, and compressed tablet.
Desmopressin-containing tablets for the experiment were prepared by combining 200 mg of effervescent formulation described in Example 1A (EF 1) with 20 mg sodium taurocholate. This mixture was added directly into a vial of lyophilized desmopressin. […]
Tablets prepared accordingly were tested in dogs per protocol described above. […] Desmopres sin was measured using LC/MS/MS analysis o the serum samples.

[2] = tested on: cultured human buccal carcinoma cells (SqCC/Y1 cells)
Experimental: (§1) In vitro permeability testing was conducted as follows. Starting with acrylic inserts having one end sealed with 0.6 cm square area inserts of acrylic and polycarbonate membranes without cells, the cultured human buccal carcinoma cells (SqCC/Y1 cells) were grown on the membrane surface in culture medium for a period of 24 hours. The culture medium was removed from the top of the insert (“air-lifting” process), wherein the cells continued to receive nutrients from the culture medium beneath the inserts. Under these conditions, the cells were grown for a period of 7 to 10 days so as to grow the cells to multilayer confluence on the polycarbonate membrane, thereby increasing cellular density to a multi-layer, tissue-like barrier resembling that of buccal mucosal tissue.
(§2) The assay was performed by rinsing the inserts with Krebs-Ringer buffer solution without sodium bicarbonate (KRB) and inspecting for uniformity by measuring the transepithelial electrical resistance (TEER). When the average electrical resistance necessary was 350 ohms or greater, the inserts were selected for permeability testing, thereby ensuring consistent permeability barrier thickness and distribution.
(§3) The inserts were separated into the groups (e.g., n=3) with closely similar average TEER values (of the group) to be used in testing particular formulations of active pharmaceutical ingredients (i.e., polypeptide). For a given bile salt, for example, the sample groups were as follows: • 1) polypeptide alone; • 2) polypeptide in combination with bile salt; • 3) polypeptide in combination with effervescent excipient composition (Excipient Formula 1) powder; • 4) polypeptide in combination with bile salt (varying concentrations) and effervescent excipient composition (Excipient Formula 1) powder.
(§4) The inserts were placed into cell culture wells with a defined volume of KRB and incubated at 37° C. on shaker tables set at 100 rpm. Thus, the cells were exposed to the given active ingredient (polypeptide) without and in combination with the various excipient formulations described.
(§5) Samples were removed from the basolateral fluid every 10 minutes for a period of one hour, and the removed fluid was replaced with an equal volume of KRB. At the end of the hour, the residual fluid within the insert was recovered and stored, the insert was rinsed with KRB, and the TEER value again measured. The TEER differences between the starting step TEER and final step TEER were recorded.
(§6) The samples from the basolateral wells were analyzed for the active ingredient (polypeptide) using various techniques. The amount of active in the well was calculated and corrected for sampling loss.
(§7) Enhancement Ratio (ER) is equal to the ratio of the Papp with absorption enhancer divided by the Papp without absorption enhancer. Thus, this technique was used for each of the proposed permeability enhancement compositions below.
(§8) The permeability of fluorescently-labeled polypeptide with and without enhancement was measured by the in vitro permeability assay. The amount of polypeptide permeating through the cells/tissue into the basolateral fluid was measured and the apparent permeability coefficient (Papp) for each polypeptide sample was calculated.

[3] = Anaesthetized dog model, salmon calcitonin oral transmucosal permeation from effervescent tablets; format: in vivo; details: adding 2.5% NaTC or more to the effervescent formulation
Text: Anesthetized dog models were used to evaluate transmucosal permeation of polypeptide compositions prepared in accordance with the invention. Mature mongrel large-breed (15-35 kg) dogs were screened for medical conditions to qualify. For testing, the dogs were anaesthetized, placed on their right or left side, and cannulated via the cephalic vein. A Teflon ring was attached to the buccal mucosa in a horizontal position to form a reservoir. Biologically active polypeptides to be evaluated were deposited, with or without enhancer components, onto the buccal mucosa surrounded by the ring. Depending upon the experiment, active polypeptides were deposited in the form of solution, dry powder or solid dosage form (tablet). […]
At 2 hours, the dog is removed from anesthesia and the ring is removed from its buccal mucosa. […] Blood samples are allowed to clot, the serum is separated by centrifugation, and the serum is frozen at −20° or −80° C., depending upon the protocol until analyzed for the active polypeptide content.
Salmon calcitonin (s-Ct) was tested for buccal permeation into the blood stream of anesthetized dogs with effervescent compressed tablets containing s-Ct and the bile salt (sodium taurocholate) at 0%, 2.5%, 5.0%, and 10% bile salt. […] The following table contains the formulation information of the tablets evaluated. […]

[4] = tested on: cultured human buccal carcinoma cells (SqCC/Y1 cells); test: In vitro permeability assay (apparent permeability coefficient Papp across multilayer buccal cell culture); details: ELISA
Experimental: as §1, §2, §3, §4, §5, §6, §7, §8

[5] = INTRON A acquired from Schering Corp.; cited from earlier work
[6] = with bile salt (sodium taurocholate) alone

## NC(=O)CC[C@@H]1NC(=O)[C@H](Cc2ccccc2)NC(=O)[C@H](Cc2ccc(O)cc2)NC(=O)CCSSC[C@@H](C(=O)N2CCC[C@H]2C(=O)N[C@H](CCCN=C(N)N)C(=O)NCC(N)=O)NC(=O)[C@H](CC(N)=O)NC1=O [Desmopressin, deamino-Cysl-D-Arg Vasopressin]
[1]; desmopressin in combination with the bile salt alone
  permeation of the polypeptide across the mucosal tissue in the in vivo model: does not appear to appreciably increase the permeation
[1]; desmopressin with combination of bile salt and effervescent formulation
  transport/permeation of the polypeptide across the mucosal tissue in the in vivo model: appears to appreciably enhance
[1]; desmopressin with the effervescent formulations alone
  permeation of the polypeptide across the mucosal tissue in the in vivo model: does not appear to appreciably increase the permeation
[2]
  in vitro permeation of desmopressin across mucosal tissue (Papp): does not appear to appreciably increase polypeptide permeation
  in vitro transport/permeability of desmopressin across mucosal tissue (Papp): appears to exhibit appreciable enhancement

## CC(C)C[C@H](NC(=O)[C@H](CCCCN)NC(=O)CNC(=O)[C@H](CC(C)C)NC(=O)[C@@H](NC(=O)[C@@H]1CSSC[C@H](N)C(=O)N[C@@H](CO)C(=O)N[C@@H](CC(N)=O)C(=O)N[C@@H](CC(C)C)C(=O)N[C@@H](CO)C(=O)N[C@@H]([C@@H](C)O)C(=O)N1)C(C)C)C(=O)N[C@@H](CO)C(=O)N[C@@H](CCC(N)=O)C(=O)N[C@@H](CCC(=O)O)C(=O)N[C@@H](CC(C)C)C(=O)N[C@@H](Cc1c[nH]cn1)C(=O)N[C@@H](CCCCN)C(=O)N[C@@H](CC(C)C)C(=O)N[C@@H](CCC(N)=O)C(=O)N[C@H](C(=O)N[C@@H](Cc1ccc(O)cc1)C(=O)N1CCC[C@H]1C(=O)N[C@@H](CCCNC(=N)N)C(=O)N[C@H](C(=O)N[C@@H](CC(N)=O)C(=O)N[C@H](C(=O)NCC(=O)N[C@@H](CO)C(=O)NCC(=O)N[C@H](C(=O)N1CCC[C@H]1C(N)=O)[C@@H](C)O)[C@@H](C)O)[C@@H](C)O)[C@@H](C)O [s-CT]
[3]
  transmucosal permeability of s-Ct in anesthetized dogs: large improvement in permeability
[4]; s-CT + taurocholate + EF 2
  permeation result of combination compared with individual effects: greater than the sum of the individual permeation effects
[4]; with EF 2 alone
  in vitro permeation of s-CT across mucosal tissue (Papp): does not appear to exhibit an increase in permeation
[4]; [6]
  in vitro permeation of s-CT across mucosal tissue (Papp): does not appear to exhibit an increase in permeation
[4]; with effervescent formulation (EF 2) and 1% or 2% bile salt
  in vitro permeation/transport of s-CT across mucosal tissue (Papp): does appear to exhibit appreciably enhanced permeation/transport

## IFNα
[5]
  specific activity: 260 million IU per mg protein
[4]; IFNα + taurocholate + EF 1
  permeation result of combination compared with individual effects: greater than the sum of the individual permeation effects
[4]; with 1% or 2% bile salt and effervescent composition (EF 1)
  in vitro permeation of IFNα across mucosal tissue (Papp): does appears to produce appreciable enhancement
[4]; with EF 1 alone
  in vitro permeation of IFNα across mucosal tissue (Papp): does not appear to appreciably increase the permeation
[4]; with bile salt alone
  in vitro permeation of IFNα across mucosal tissue (Papp): does not appear to appreciably increase the permeation

## IGF-1: Insulin-like Growth Factor-1, 70 amino acids with 3 internal disulfide bonds
[4]; IGF-1 + taurocholate + EF2
  permeation result of combination compared with individual effects: greater than the sum of the individual permeation effects
[4]; with EF 2 alone
  in vitro permeation of IGF-1 across mucosal tissue (Papp): does not appear to exhibit an increase in permeation
[4]; with EF2 and 1% bile salt
  in vitro permeation/transport of IGF-1 across mucosal tissue (Papp): appears to exhibit enhanced permeation/transport
[4]; [6]
  in vitro permeation of IGF-1 across mucosal tissue (Papp): does not appear to exhibit an increase in permeation
